Values quoted from earlier work as cited in patent US20240335440A1, “COMBINATION THERAPY COMPRISING A PKC INHIBITOR AND A C-MET INHIBITOR” (IDEAYA BIOSCIENCES, INC., priority 2021, published 2024).
Where two headings read alike, the source gives them in different places. Marks after values point to notes of the source that are not given here.

How the values were obtained:
[1] = system: metastatic uveal melanoma (MUM); details: First-Line MUM (n = 31); oral capsules QD
[2] = system: metastatic uveal melanoma (MUM); details: Second-Line + MUM (n = 127)

COc1cc2nccc(Oc3ccc(NC(=O)C4(C(=O)Nc5ccc(F)cc5)CC4)cc3)c2cc1OC [Cabozantinib]
Tolerability (Grade ≥3 Drug-related AE) [1]: 51.6%

Tebentafusp: HLA-A2-0201 bi-specific AB, IV infusion (weekly), IMCgp100-102 study
Tolerability (Grade ≥3 Drug-related AE) ([2]; HLA-A2-0201 patients, IV infusion weekly): 46.5%
% Pts with tumor shrinkage ([2]; independent review): 44%^#
Overall response rate by RECIST 1.1 ([2]; independent review): 4.7%^#
Progression free survival (mPFS) ([2]; independent review): 2.8 mo.^#
